Series [1] relates to SHSY cells. Nature of the series: Toxicity of SZ-3 in cultured SHSY cells (MTT). In kind it is cell-based. The settings on record: different concentrations of SZ-3, 5-20 μM range. As to the method: (§1) The synthesized SZ-3 compound was tested for neuroprotective properties in cell-based models using a neuroblastoma cell line (SHSY) and thrombin as a stressor. Thrombin was used as a cell death inducer in cell-based models for hemorrhagic brain injury. SHSY cells were challenged by 100 U/ml thrombin and after 3 hrs treated with different concentrations of synthesized compounds. […] Cell death is observed through fluorescence.
(§2) All types of cells used in these examples were assayed for viability and proliferation after 24-72 h using the MTT or CellTiter-Glo Luminescent assay Promega (Madison, Wis.). Cells after treatment were incubated with MTT reagent for 3 h in 5% CO2 at 37° C. The medium was replaced with DMSO to dissolve formazan crystals. Absorbance was read at 570 nm to quantify cell viability. CellTiter-Glo reagents were used in some experiments by adding equal amounts of reagent to the amount of medium containing cells for a 96-well plate. Contents were mixed for 2 minutes then incubated the plate for 10 minutes at room temperature to stabilize luminescent signal.

The subject of series [2] is SHSY cells. Nature of the series: Thrombin-induced cell death in SHSY cells (MTT). The series is classed as cell-based, human. The settings on record: thrombin 100 U/ml. The protocol: as §1, §2
Series [3] has as its system HMC3 cells. Nature of the series: Scratch wound assay (IncuCyte) of microglial migration and proliferation. The settings on record: LPS 200 ng/ml. The series is classed as cell-based, human. The protocol:
HMC3 cells were seeded onto a poly-D-lysine hydrobromidecoated-coated 96-well culture plate and placed overnight in a 37° C. IncuCyte S3. WoundMaker was used to simultaneously create wounds in all wells and then LPS (200 ng/ml) was added to wounded cells except control group. After 3 h cells were treated with DMSO (control) or SZ-3 (5 μM). The wound images were taken at 2 h intervals for 58 h. Data were processed and analyzed by using IncuCyte software.
In response to brain injury, microglia transform into an activated state and migrate to the damaged area. This migration leads to an accumulation of activated microglia around the injury site resulting in vicious cycle of microglial activation and further release of inflammatory cytokines. To elucidate whether SZ-3 can stop or reduce the migration of activated microglial cells towards the injury site, a scratch wound assay was performed. At different time intervals, wound confluence, relative wound, and wound width metrics were assayed to analyze the migration of the microglial cells.
HMC3 cells (30,000 cells/well) were seeded onto a poly-D-lysine hydrobromidecoated-coated 96-well culture plate (corning) and placed overnight in a 37° C. IncuCyte S3 (Essen BioScience) supplied with 5% CO2. WoundMaker (Essen BioScience) was used to simultaneously create wounds in all wells then washed twice with culture medium. LPS (200 ng/ml) was added to wounded cells except control group immediately after the wash. 3 h later cells were treated with DMSO (control) or SZ-3 (5 μM). The wound images were taken at 2 h intervals for 72 h. Data were processed and analyzed by using IncuCyte software.

The test system of series [4] is phosphocofilin. Nature of the series: WB of phosphocofilin in thrombin-challenged HMC3 cells. The series is classed as cell-based, human. The settings on record: thrombin 100 U/ml, SZ-3 10, 5 μM after 3 h, WB after 24 h. As to the method:
(§3) FIG. 11: SZ-3 reduces inflammation through NF-κB mechanism. Cultured HMC3 cells were challenged with thrombin 100 U/ml and after 3 h were treated with different concentrations of SZ-3 (10 and 5 μM). Cells were harvested for WB analysis after 24 h.
WB was used to assay the expression levels of cofilin, phosphocofilin, and NF-κB. […] Without wishing to be bound by theory, the role of phosphocofilin is not fully understood, but it is believed that it is decreased in stress conditions and its restoration is beneficial.
HMC3 cells were cultured in DMEM/F12 medium supplemented with 5% horse serum (HS), 10% fetal bovine serum (FBS), and 1% penicillin/streptomycin. Cells were stimulated with 100 U/ml thrombin from bovine plasma (Sigma) and treated without (vehicle) or with different concentrations of SZ-3.
Cells were harvested and washed with ice-cold lysis buffer (250 mM sucrose, 1.5 mM MgCl2, 10 mM KCl, 20 mM HEPES 7.6 pH, 1 mM of dithiothreitol, 1 mM phenylmethylsulfonyl fluoride, 50 mM NaF, 10 mM sodium orthovanadate, 20 mM sodium pyrophosphate, and protease inhibitors) for 15 min then supplemented with 5% of Nonidet P-40 for 2 min. […] Glyceraldehyde 3-phosphate dehydrogenase (GAPDH) or beta-actin were used as the loading control, and band intensity analyzed using Bio-Rad Chemi-Doc XRS Image Lab Software.

In series [5] the test system is HMC3 cells. Nature of the series: Thrombin-induced cell death in HMC3 cells. The series is classed as cell-based, human. The settings on record: thrombin 100 U/ml, SZ-3 10 μM. As to the method: as §3, §2
The test system of series [6] is mice with hemorrhage. As to the kind of experiment: Experimental hemorrhage in mice by collagenase injection into the striatum. In kind it is in vivo. As to the method: Mice were subjected to experimental hemorrhage by injecting collagenase into the striatum. After 3 h of collagenase injection, mice were treated with two concentrations of SZ-3 (1 and 10 mg/kg, i.p.) followed by 12 hourly injections until day 3. Mice were evaluated for baseline rotarod and grip strength 24 h prior and after hemorrhage and then after every 24 hs for three days. N=12 per group. FIG. 12A depicts a timeline of the experiment, and photographs of the mice.
The top column is Sham, the second column is vehicle, the third column is SZ-3 (1 mg/kg), and the fourth column is SZ-3 (10 mg/kg).
Finally, it was desired to elucidate if treatment with SZ-3 can mitigate the hemorrhage induced behavioral deficits. Hemorrhage was induced in mice, and the mice were then treated with SZ-3. Mice were subjected to experimental hemorrhage by injecting collagenase into the mice striatum. Collagenase model simulates the hemorrhage by inducing vessel damage resulting in localized hematomas. This model is widely used in hemorrhagic stroke research.
Mice were treated with two concentrations of SZ-3 (1 and 10 mg/kg, i.p;) immediately after 3 h of hemorrhage and then after every 12 h for 3 days (FIG. 12A). […] Normally, the mice are substantially paralyzed a short time after the stroke.

Series [7] can be described thus: Solubility of SZ-3 in the mouse study. In kind it is physicochemical.

“Also recorded” adds a separate entry of the source.

The values that follow come from US11548850B2, “Development of a cofilin inhibitor for the treatment of hemorrhagic brain injury-induced neuroinflammation” (The University of Toledo, priority 2019, dated 2023).

As for `CC(C)(C)c1ccc(O)c(CN(Cc2cc(C(C)(C)C)ccc2O)C2CCC(NC(N)=O)CC2)c1` (stereo not drawn) [SZ-3, 4-{bis[(5-tert-butyl-2-hydroxyphenyl)methyl]amino}cyclohexyl urea], the “toxicity in SHSY cells” value in series [1] is on record as “did not show any signs of toxicity; also recorded: No toxicity was observed”. Also, the “cell death induced by thrombin, best concentration” value in series [2] (SZ-3 10 μM) was “showing the best effect”. Moreover, in series [2] (SZ-3 20, 10, 5 μM after 3 h, MTT after 24 h), the “cell death induced by thrombin” value is “significantly reversed the cell death; also recorded: significantly restored cell death induced by thrombin”. In series [3] (SZ-3 5 μM after 3 h), the “distance between the migrating edges of the wound (wound width)” value is listed as “in between”; the “microglial migration and proliferation” value was “reduces the proliferation and migration of the microglial cells; also recorded: reduced microglial migration and proliferation”. The “confluence of cells within the wound region” value in series [3] (SZ-3 5 μM after 3 h, first 24 h) is “less with SZ-3 treated cells relative to non-treated cells”. Further, the “cell density in the wound area relative to outside the wound area” value in series [3] (SZ-3 5 μM, after the 24 h of treatment) was “slow increase rate in cell density in the wound area”. Further, the phosphocofilin expression level result in series [4] is listed as “reversed the expression levels”. Moreover, the “cell death induced by thrombin” value in series [5] was “significantly restored cell death induced by thrombin”. In addition, the “cell death after experimental ICH” value in series [6] (FIG. 13, SZ-3 1 mg/kg and 10 mg/kg versus vehicle, fluorescence) was “barely any cell death; also recorded: reduces cell death after experimental ICH”. Moreover, in series [6] (SZ-3 1 and 10 mg/kg i.p. 3 h after hemorrhage then every 12 h for 3 days, day 2 and 3), the “motor function assessed by rotarod” value was “significantly reversed”. The grip strength entry in series [6] (SZ-3 1 and 10 mg/kg i.p., after hemorrhage) is “showed enhanced grip strength”. The “lesions in the mice” value in series [6] (mice treated with SZ-3) is reported as “no lesions formed”. In addition, in series [6] (sham mice, no induced hemorrhage), the “grip of sham mice” value is “improved the grip of the mice even without hemorrhage”. Further, the solubility entry in series [7] is “no solubility issues”.
